Experimental data taken from patent US20040014066A1, “Screening system” (priority 2000, published 2004).
“Also recorded” adds a separate entry of the source. Positions of bridges follow the written chain, without caps; N, C: chain ends. Non-standard residues stand in square brackets, D forms with d. Residues, ends and D or L forms follow the SMILES beside them. *: point of attachment. Ileψ(thiazoline)Cys = CC[C@H](C)[C@H](N)C1=N[C@H](C(=O)*)CS1; dOrn = NCCC[C@@H](N)C(=O)O

System: sigE promoter
Assay: sigE promoter bioassay: sigEp-neo fusion (pIJ6880) in M600, paper discs on MMT medium with lethal kanamycin, halo of kanamycin-resistant growth
Type: cell-based, Streptomyces coelicolor A3(2)
Settings: for induction of the sigE promoter (halo of kanamycin-resistant growth), in words: M600 carrying pIJ6880, MMT medium, kanamycin 100 μg ml^−1, paper disc; for potency as inducer of the sigE promoter, in words: M600 carrying pIJ6880, kanamycin 100 μg ml^−1, paper disc
Experimental: To see if the sigE promoter could be induced by control-antibiotics known to target the cell envelope, spores of M600 carrying pIJ6880 were spread on MMT medium carrying a lethal concentration of kanamycin (100 μg ml^−1) and potential inducers were applied on paper discs to the freshly spread plates.
In order to perform the assay of the invention,spores of the host microorganism, for example, M600 carrying pIJ6880, are spread on MMT medium carrying a lethal concentration of kanamycin (100 μg ml^−1)at concentration of approximately 5×10^6/12 cm^2 plate. Test compound is applied on paper discs to a number of freshly spread plates in parallel using a different concentration of the test compound in each plate.

CC1(C)S[C@@H]2[C@H](NC(=O)[C@H](N)c3ccc(O)cc3)C(=O)N2[C@H]1C(=O)O [Amoxycillin]
induction of the sigE promoter (halo of kanamycin-resistant growth), in words: induced a halo of kanamycin-resistant growth

CC1(C)S[C@@H]2[C@H](NC(=O)[C@H](N)c3ccccc3)C(=O)N2[C@H]1C(=O)O [Ampicillin]
induction of the sigE promoter (halo of kanamycin-resistant growth), in words: found to induce the sigE promoter

CC[C@H](C)[C@H](N)C1=N[C@H](C(=O)N[C@@H](CC(C)C)C(=O)N[C@H](CCC(=O)O)C(=O)N[C@H](C(=O)N[C@H]2CCCCNC(=O)[C@H](CC(N)=O)NC(=O)[C@@H](CC(=O)O)NC(=O)[C@H](Cc3cnc[nH]3)NC(=O)[C@@H](Cc3ccccc3)NC(=O)[C@H]([C@@H](C)CC)NC(=O)[C@@H](CCCN)NC2=O)[C@@H](C)CC)CS1 [Bacitracin] ({Ileψ(thiazoline)Cys}-L[dE]IK[dOrn]I[dF]H[dD]N; lactam 4-C)
induction of the sigE promoter (halo of kanamycin-resistant growth), in words: found to induce the sigE promoter | potency as inducer of the sigE promoter, in words: particularly potent inducers

N[C@@H](C(=O)N[C@@H]1C(=O)N2C(C(=O)O)=C(Cl)CS[C@H]12)c1ccccc1 [Cefaclor]
induction of the sigE promoter (halo of kanamycin-resistant growth), in words: found to induce the sigE promoter

CC1=C(C(=O)O)N2C(=O)[C@@H](NC(=O)[C@H](N)c3ccc(O)cc3)[C@H]2SC1 [Cefadroxil]
induction of the sigE promoter (halo of kanamycin-resistant growth), in words: found to induce the sigE promoter

CC1=C(C(=O)O)N2C(=O)[C@@H](NC(=O)[C@H](N)c3ccccc3)[C@H]2SC1 [Cephalexin]
induction of the sigE promoter (halo of kanamycin-resistant growth), in words: found to induce the sigE promoter

CC1=C(C(=O)O)N2C(=O)[C@@H](NC(=O)[C@H](N)C3=CCC=CC3)[C@H]2SC1 [Cepharadine]
induction of the sigE promoter (halo of kanamycin-resistant growth), in words: found to induce the sigE promoter

CO[C@@H]1[C@@H](OC(N)=O)[C@@H](O)[C@H](Oc2ccc3c(O)c(NC(=O)c4ccc(O)c(CC=C(C)C)c4)c(=O)oc3c2C)OC1(C)C [Novobiocin]
induction of the sigE promoter (halo of kanamycin-resistant growth), in words: do not induce a halo

CC1(C)S[C@@H]2[C@H](NC(=O)Cc3ccccc3)C(=O)N2[C@H]1C(=O)O [Penicillin G]
induction of the sigE promoter (halo of kanamycin-resistant growth), in words: induced a halo of kanamycin-resistant growth; also recorded: found to induce the sigE promoter

[H]/N=C(/N)N[C@H]1[C@H](O)[C@@H](O)[C@H](O[C@@H]2O[C@@H](C)[C@](O)(C=O)[C@H]2O[C@@H]2O[C@@H](CO)[C@H](O)[C@@H](O)[C@@H]2NC)[C@@H](N/C(N)=N\[H])[C@@H]1O [Streptomycin]
induction of the sigE promoter (halo of kanamycin-resistant growth), in words: do not induce a halo

C=C(NC(=O)C(=C)NC(=O)c1csc(C2=N[C@@H]3c4csc(n4)[C@H]4NC(=O)c5csc(n5)[C@H]([C@](C)(O)[C@@H](C)O)NC(=O)[C@H]5CSC(=N5)/C(=C/C)NC(=O)[C@H]([C@@H](C)O)NC(=O)c5csc(n5)[C@]3(CC2)NC(=O)[C@H](C)NC(=O)C(=C)NC(=O)[C@H](C)NC(=O)[C@H]([C@@H](C)CC)N[C@@H]2C=Cc3c([C@H](C)O)cc(nc3[C@H]2O)C(=O)O[C@@H]4C)n1)C(N)=O [Thiostrepton]
induction of the sigE promoter (halo of kanamycin-resistant growth), in words: do not induce a halo

CC1(C)S[C@@H]2[C@H](NC(=O)[C@H](C(=O)O)c3ccsc3)C(=O)N2[C@H]1C(=O)O [Ticarcillin]
induction of the sigE promoter (halo of kanamycin-resistant growth), in words: induced a halo of kanamycin-resistant growth; also recorded: found to induce the sigE promoter

CN[C@H](CC(C)C)C(=O)N[C@H]1C(=O)N[C@@H](CC(N)=O)C(=O)N[C@H]2C(=O)N[C@H]3C(=O)N[C@H](C(=O)N[C@H](C(=O)O)c4cc(O)cc(O)c4-c4cc3ccc4O)[C@H](O)c3ccc(c(Cl)c3)Oc3cc2cc(c3O[C@@H]2O[C@H](CO)[C@@H](O)[C@H](O)[C@H]2O[C@H]2C[C@](C)(N)[C@H](O)[C@H](C)O2)Oc2ccc(cc2Cl)[C@H]1O [Vancomycin]
induction of the sigE promoter (halo of kanamycin-resistant growth), in words: induced a halo of kanamycin-resistant growth; also recorded: found to induce the sigE promoter | potency as inducer of the sigE promoter, in words: particularly potent inducers | signs of toxicity to the reporter strain while acting as inducer (halo grows to the edge of the disc) (paper disc, FIG. 2): without showing any signs of toxicity

Cc1onc(-c2ccccc2)c1C(=O)N[C@@H]1C(=O)N2[C@@H]1SC(C)(C)[C@@H]2C(=O)O [oxacillin]
induction of the sigE promoter (halo of kanamycin-resistant growth), in words: found to induce the sigE promoter

Ristocetin
induction of the sigE promoter (halo of kanamycin-resistant growth), in words: induced a halo of kanamycin-resistant growth; also recorded: found to induce the sigE promoter | potency as inducer of the sigE promoter, in words: particularly potent inducers | amount giving a positive reaction in the bioassay (initial assessment of sensitivity) (sigE promoter bioassay): 75 ng

Teicoplanin
induction of the sigE promoter (halo of kanamycin-resistant growth), in words: induced a halo of kanamycin-resistant growth; also recorded: found to induce the sigE promoter | potency as inducer of the sigE promoter, in words: particularly potent inducers

lysozyme
induction of the sigE promoter (halo of kanamycin-resistant growth), in words: acted as an inducer
